Here are results for ten compounds from PubChem BioAssay (NCI).

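Dose response: 5 concentrations. Exposure: 48 h. Format: 96-well plates. Endpoint: linear interpolation; highest concentration if not reached. GI50: concentration for 50% inhibition of growth. TGI: concentration producing complete growth inhibition.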 A value given as a limit tells only on which side of the number the result lay.

Among the test systems are K-562 leukemia; NCI-H522 lung; IGROV1 ovarian; A549 NSCLC; MDA-MB-231 breast; OVCAR-4 ovarian; HCT-116 colon; CAKI-1 renal; DLD-1 colon; DMS 114 small cell lung.
What all share (assay): inhibition of tumour cell growth, NCI panel, 48 h

Take `COc1ccc(/C=C2/SC(=Nc3c(C)nn(-c4ccccc4)c3N)NC2=O)cc1`: the GI50 in the assay with K-562 leukemia is 3.02 µM; with NCI-H522 lung, 3.1 µM; with IGROV1 ovarian, 5.2 µM; in the assay with A549 NSCLC it was 2.74 µM; with MDA-MB-231 breast, 9.5 µM; in the assay on OVCAR-4 ovarian, 8.21 µM. Also, the results for the GI50 in the assay with HCT-116 colon and with CAKI-1 renal were 3.3 µM and 2.82 µM, respectively. Besides, the TGI in the assay on K-562 leukemia is > 100 µM; in the assay with NCI-H522 lung, 16.4 µM; with IGROV1 ovarian it was 28.8 µM; in the assay on A549 NSCLC, 24 µM; in the assay on MDA-MB-231 breast, 69.7 µM; in the assay on OVCAR-4 ovarian, > 100 µM. Further, the results for the TGI in the assay with HCT-116 colon and in the assay on CAKI-1 renal were 12.5 µM and 15.7 µM, respectively.
As to `Cc1cc2c(-c3nc4ccccc4[nH]3)c(O)c(O)cc2c(O)c1-c1c(C)cc2c(-c3nc4ccccc4[nH]3)c(O)c(O)cc2c1O`, the GI50 was 0.0199 µM in the assay with K-562 leukemia; 0.0449 µM in the assay on NCI-H522 lung; 0.0416 µM in the assay with IGROV1 ovarian; 0.0117 µM in the assay with A549 NSCLC; 0.0835 µM with MDA-MB-231 breast; 0.0384 µM in the assay with OVCAR-4 ovarian. Further, the GI50 in the assay on HCT-116 colon is 0.00866 µM; in the assay on CAKI-1 renal, 0.0496 µM. For the same compound, the TGI is > 50 µM with K-562 leukemia; 0.878 µM with NCI-H522 lung; > 23.1 µM in the assay on IGROV1 ovarian; 9.66 µM with A549 NSCLC; > 38.9 µM in the assay with MDA-MB-231 breast; 16.8 µM in the assay with OVCAR-4 ovarian. Also, the TGI in the assay with HCT-116 colon amounted to 3.29 µM; with CAKI-1 renal, 0.628 µM.
Regarding `CN1CCC(O)C(CNC23CC4CC(CC(C4)C2)C3)C1` (stereo unspecified), the TGI with K-562 leukemia, in the assay on NCI-H522 lung, in the assay with DLD-1 colon, in the assay with A549 NSCLC, with DMS 114 small cell lung and in the assay with OVCAR-4 ovarian was > 100 µM in each case. The TGI in the assay with CAKI-1 renal was > 100 µM.
With `O=c1c(Cl)nsnc1Cl`, the TGI was 3.58 µM with K-562 leukemia; 3.81 µM with NCI-H522 lung; 32.4 µM with IGROV1 ovarian; 65.4 µM in the assay on A549 NSCLC; 41.8 µM with MDA-MB-231 breast; 49.4 µM in the assay on OVCAR-4 ovarian. The TGI with HCT-116 colon was 20.5 µM; in the assay with CAKI-1 renal it was 37.3 µM.
For `Cn1cc(-c2ccc3cc(-c4ccc(CC(=O)Nc5cc(C(C)(C)C)nn5C)cc4)cnc3c2)cn1`, the GI50 in the assay with K-562 leukemia was 0.347 µM; in the assay on NCI-H522 lung, 0.251 µM; with IGROV1 ovarian it was 0.063 µM; in the assay with A549 NSCLC, 0.336 µM; in the assay with MDA-MB-231 breast, 0.317 µM; in the assay on OVCAR-4 ovarian, 0.159 µM. In addition, the GI50 in the assay on HCT-116 colon was 0.191 µM; in the assay with CAKI-1 renal, 0.0519 µM. The TGI in the assay on K-562 leukemia, with NCI-H522 lung, in the assay with IGROV1 ovarian, in the assay with A549 NSCLC, with MDA-MB-231 breast and with OVCAR-4 ovarian was > 100 µM each time. In addition, the TGI with HCT-116 colon and in the assay on CAKI-1 renal was > 100 µM each time.
As for `COc1cc([C@@H]2c3cc4c(cc3[C@H](OC3OC5COC(c6ccccc6)OC5C(O)C3O)[C@H]3COC(=O)[C@H]23)OCO4)cc(OC)c1OC` (stereo partly specified), the GI50 with K-562 leukemia was 0.359 µM; in the assay with NCI-H522 lung it was 0.322 µM; with IGROV1 ovarian, 0.337 µM; with A549 NSCLC it was 0.344 µM; with MDA-MB-231 breast, 0.422 µM; in the assay on OVCAR-4 ovarian, 0.663 µM. Also, the GI50 in the assay with HCT-116 colon is 0.346 µM; with CAKI-1 renal it was 0.378 µM. In addition, the TGI was > 100 µM in the assay with K-562 leukemia; 3.3 µM in the assay on NCI-H522 lung; 1.34 µM in the assay with IGROV1 ovarian; 5.68 µM in the assay with A549 NSCLC; 29 µM in the assay on MDA-MB-231 breast; 11.8 µM in the assay with OVCAR-4 ovarian. In the assay on CAKI-1 renal, the TGI was found to be 22.2 µM.
`CCOC(=O)c1cnc2ccc(Cl)cc2c1NCCCN(C)C`: the GI50 with K-562 leukemia is 18.1 µM; in the assay with NCI-H522 lung it was 16.2 µM; in the assay on IGROV1 ovarian it was 35 µM; with A549 NSCLC it was 21.2 µM; in the assay with MDA-MB-231 breast it was 19.5 µM; with OVCAR-4 ovarian, 23.6 µM. Moreover, the GI50 was 10.2 µM with HCT-116 colon and 23.8 µM in the assay on CAKI-1 renal. Besides, the TGI in the assay with K-562 leukemia is > 100 µM; with NCI-H522 lung it was 39.4 µM; in the assay on IGROV1 ovarian, > 100 µM; in the assay on A549 NSCLC it was 67.7 µM; with MDA-MB-231 breast, 86.4 µM; with OVCAR-4 ovarian, > 100 µM. The TGI with HCT-116 colon is > 100 µM; in the assay on CAKI-1 renal, 96.5 µM.
On to `CCCCC1(N=[N+]=[N-])C(=O)c2cccc3c2N(CCC3)C1=O` (stereo unspecified), for which the TGI with K-562 leukemia, in the assay on NCI-H522 lung, in the assay on IGROV1 ovarian, with A549 NSCLC, in the assay on MDA-MB-231 breast and in the assay with OVCAR-4 ovarian was > 100 µM throughout. In addition, the TGI in the assay with HCT-116 colon and with CAKI-1 renal was > 100 µM throughout.
In the case of `CCS[C@H]1NC(=O)C1[C@H](C)O[Si](C)(C)C(C)(C)C` (stereo partly specified), the TGI in the assay on K-562 leukemia, with DLD-1 colon, in the assay with IGROV1 ovarian, in the assay on A549 NSCLC, in the assay on DMS 114 small cell lung and in the assay on OVCAR-4 ovarian was > 100 µM in each case. Moreover, the TGI in the assay on HCT-116 colon and in the assay with CAKI-1 renal was > 100 µM each time.
For `N#Cc1c(N)nn(C(=O)c2ccc(NC(=O)c3ccccn3)cc2)c1-c1ccc(Cl)cc1`, the GI50 is 6.62 µM with K-562 leukemia; 4.52 µM in the assay on NCI-H522 lung; 2.63 µM in the assay on IGROV1 ovarian; 3.24 µM in the assay with A549 NSCLC; 11.6 µM with MDA-MB-231 breast; 2.33 µM with OVCAR-4 ovarian. Moreover, the GI50 in the assay with HCT-116 colon is 3.32 µM; with CAKI-1 renal, 2.06 µM. Also, the TGI in the assay on K-562 leukemia is > 100 µM; with NCI-H522 lung, > 100 µM; in the assay on IGROV1 ovarian, 16.8 µM; in the assay on A549 NSCLC, 12.8 µM; with MDA-MB-231 breast it was > 100 µM; in the assay with OVCAR-4 ovarian, 6.02 µM. For the same compound, the TGI in the assay on HCT-116 colon was > 100 µM; in the assay with CAKI-1 renal it was 6.3 µM.
